Test results reported in US10882871B2, “18/19F-labelled compounds which target the prostate specific membrane antigen” (BRITISH COLUMBIA CANCER AGENCY BRANCH, priority 2016, dated 2021).

Tests used:
[1] = test system: PSMA-expressing prostate cancer; conditions: clinical trials, PSMA-expressing prostate cancer patients; cited from earlier work
[2] = test system: PSMA-expressing LNCAP cancer xenografts; experiment: Biodistribution and tumor-to-background contrast ratios of 18F-labeled tracers; format: in vivo, mouse (NODSCID 1L2RγKO male mice)
Experimental: LNCap cell line was obtained from ATCC (LNCaP clone FGC, CRL-1740). It was established from a metastatic site of left supraclavicular lymph node of human prostatic adenocarcinoma. Cells were cultured in PRMI 1640 medium supplemented with 10% FBS, penicillin (100 U/mL) and streptomycin (100 μg/mL) at 37° C. in a humidified incubator containing 5% CO2. Cells grown to 80-90% confluence were then washed with sterile phosphate-buffered saline (1×PBS pH 7.4) and trypsinization. The collected cells number was counted with a Hausser Scientific (Horsham, Pa.) Hemacytometer.
Imaging and biodistribution experiments were performed using NODSCID 1L2RγKO male mice. Mice were anesthetized by inhalation with 2% isoflurane in oxygen, and implanted subcutaneously with 1×10^7 LNCaP cells behind left shoulder. Mice were imaged or used in biodistribution studies when the tumor grew up to reach 5-8 mm in diameter during 5-6 weeks.
PET imaging experiments were conducted using Siemens Inveon micro PET/CT scanner. Each tumor bearing mouse was injected 6-8 MBq of F-18 labeled tracer through the tail vein under anesthesia (2% isoflurane in oxygen). The mice were allowed to recover and roam freely in their cage. After 50 min, the mice were sedated again with 2% isoflurane in oxygen inhalation and positioned in the scanner. A 10-min CT scan was conducted first for localization and attenuation correction after segmentation for reconstructing the PET images. Then, a 10-min static PET imaging was performed to determined uptake in tumor and other organs. The mice were kept warm by a heating pad during acquisition. For imaging studies acquired at 2 h post-injection (p.i.), the mice were placed in the micro PET/CT scanner at 110 min p.i. Then, the CT and PET acquisitions were conducted as described above.
For biodistribution studies, the mice were injected with the radiotracer as described above. At predetermined time points (1 or 2 h), the mice was anesthetized with 2% isoflurane inhalation, and euthanized by CO2 inhalation. Blood was withdrawn immediately from the heart, and the organs/tissues of interest were collected. The collected organs/tissues were weighed and counted using an automatic gamma counter. The uptake in each organ/tissue was normalized to the injected dose using a standard curve, and expressed as the percentage of the injected dose per gram of tissue (% ID/g).

O=C([O-])CN1CCN(CC(=O)[O-])CCN(CC(=O)NCC2CCC(C(=O)N[C@@H](Cc3ccc4ccccc4c3)C(=O)NCCCC[C@H](NC(=O)N[C@@H](CCC(=O)O)C(=O)O)C(=O)O)CC2)CCN(CC(=O)[O-])CC1.[177Lu+3] (stereo partly shown) [PSMA-617 radiolabeled with Lu-177]
positive response [1]: > 50%

C[N+](C)(Cc1cn(Cc2ccc(C(=O)NCCCC[C@H](NC(=O)N[C@@H](CCC(=O)O)C(=O)O)C(=O)O)cn2)nn1)C[B-](F)(F)[18F] [^18F-HTK01130]
Biodistribution Adrenal glands ([2]; 1 h): 1.46 ± 0.56 % ID/g
Biodistribution Blood ([2]; 1 h): 0.58 ± 0.09 % ID/g
Biodistribution Bone ([2]; 1 h): 0.22 ± 0.05 % ID/g
Biodistribution Brain ([2]; 1 h): 0.04 ± 0.01 % ID/g
Biodistribution Fat ([2]; 1 h): 0.39 ± 0.14 % ID/g
Biodistribution Heart ([2]; 1 h): 0.21 ± 0.05 % ID/g
Biodistribution Intestine ([2]; 1 h): 0.31 ± 0.01 % ID/g
Biodistribution Kidneys ([2]; 1 h): 63.3 ± 13.5 % ID/g
Biodistribution Liver ([2]; 1 h): 1.26 ± 0.27 % ID/g
Biodistribution Lungs ([2]; 1 h): 0.75 ± 0.10 % ID/g
Biodistribution Muscle ([2]; 1 h): 0.20 ± 0.07 % ID/g
Biodistribution Pancreas ([2]; 1 h): 0.31 ± 0.11 % ID/g
Biodistribution Spleen ([2]; 1 h): 0.95 ± 0.56 % ID/g
Biodistribution Stomach ([2]; 1 h): 0.09 ± 0.03 % ID/g
Biodistribution Testes ([2]; 1 h): 0.30 ± 0.05 % ID/g
Biodistribution Tumor ([2]; 1 h): 4.44 ± 1.11 % ID/g
Tumor:Blood contrast ratio ([2]; 1 h): 7.60 ± 1.33
Tumor:Muscle contrast ratio ([2]; 1 h): 24.1 ± 8.79
Tumor:kidney contrast ratio ([2]; 1 h): 0.07 ± 0.02
Biodistribution Adrenal glands ([2]; 2 h): 1.08 ± 0.51 % ID/g
Biodistribution Blood ([2]; 2 h): 0.21 ± 0.10 % ID/g
Biodistribution Bone ([2]; 2 h): 0.20 ± 0.09 % ID/g
Biodistribution Brain ([2]; 2 h): 0.03 ± 0.01 % ID/g
Biodistribution Fat ([2]; 2 h): 0.32 ± 0.30 % ID/g
Biodistribution Heart ([2]; 2 h): 0.10 ± 0.04 % ID/g
Biodistribution Intestine ([2]; 2 h): 0.24 ± 0.11 % ID/g
Biodistribution Kidneys ([2]; 2 h): 48.2 ± 24.6 % ID/g
Biodistribution Liver ([2]; 2 h): 1.20 ± 0.30 % ID/g
Biodistribution Lungs ([2]; 2 h): 0.30 ± 0.10 % ID/g
Biodistribution Muscle ([2]; 2 h): 0.08 ± 0.03 % ID/g
Biodistribution Pancreas ([2]; 2 h): 0.20 ± 0.18 % ID/g
Biodistribution Spleen ([2]; 2 h): 0.39 ± 0.35 % ID/g
Biodistribution Stomach ([2]; 2 h): 0.05 ± 0.03 % ID/g
Biodistribution Testes ([2]; 2 h): 0.16 ± 0.10 % ID/g
Biodistribution Tumor ([2]; 2 h): 4.27 ± 0.65 % ID/g
Tumor:Blood contrast ratio ([2]; 2 h): 7.60 ± 1.33
Tumor:Muscle contrast ratio ([2]; 2 h): 24.1 ± 8.79
Tumor:kidney contrast ratio ([2]; 2 h): 0.07 ± 0.02

C[N+](C)(Cc1cn(CC(=O)NCCOCCOCCC(=O)N[C@@H](Cc2ccc3ccccc3c2)C(=O)NCCCC[C@H](NC(=O)N[C@@H](CCC(=O)O)C(=O)O)C(=O)O)nn1)C[B-](F)(F)[18F] [^18F-HTK01146]
Biodistribution Adrenal glands ([2]; 1 h): 0.81 ± 0.25 % ID/g
Biodistribution Blood ([2]; 1 h): 0.13 ± 0.08 % ID/g
Biodistribution Bone ([2]; 1 h): 0.10 ± 0.07 % ID/g
Biodistribution Brain ([2]; 1 h): 0.01 ± 0.01 % ID/g
Biodistribution Fat ([2]; 1 h): 0.27 ± 0.14 % ID/g
Biodistribution Heart ([2]; 1 h): 0.07 ± 0.02 % ID/g
Biodistribution Intestine ([2]; 1 h): 22.2 ± 2.79 % ID/g
Biodistribution Kidneys ([2]; 1 h): 29.9 ± 25.0 % ID/g
Biodistribution Liver ([2]; 1 h): 0.83 ± 0.34 % ID/g
Biodistribution Lungs ([2]; 1 h): 0.40 ± 0.13 % ID/g
Biodistribution Muscle ([2]; 1 h): 0.05 ± 0.01 % ID/g
Biodistribution Pancreas ([2]; 1 h): 0.13 ± 0.11 % ID/g
Biodistribution Spleen ([2]; 1 h): 0.75 ± 0.36 % ID/g
Biodistribution Stomach ([2]; 1 h): 0.21 ± 0.12 % ID/g
Biodistribution Testes ([2]; 1 h): 0.18 ± 0.05 % ID/g
Biodistribution Tumor ([2]; 1 h): 5.09 ± 1.10 % ID/g
Tumor:Blood contrast ratio ([2]; 1 h): 54.6 ± 38.5
Tumor:Muscle contrast ratio ([2]; 1 h): 117 ± 52.1
Tumor:kidney contrast ratio ([2]; 1 h): 0.28 ± 0.22

C[N+](C)(Cc1cn(CC(=O)NC[C@H]2CC[C@H](C(=O)N[C@@H](Cc3ccc4ccccc4c3)C(=O)NCCCC[C@H](NC(=O)N[C@@H](CCC(=O)O)C(=O)O)C(=O)O)CC2)nn1)C[B-](F)(F)[18F] [^18F-HTK01157]
Biodistribution Adrenal glands ([2]; 1 h): 2.89 ± 1.94 % ID/g
Biodistribution Blood ([2]; 1 h): 0.89 ± 0.42 % ID/g
Biodistribution Bone ([2]; 1 h): 0.34 ± 0.14 % ID/g
Biodistribution Brain ([2]; 1 h): 0.04 ± 0.01 % ID/g
Biodistribution Fat ([2]; 1 h): 0.83 ± 0.33 % ID/g
Biodistribution Heart ([2]; 1 h): 0.31 ± 0.11 % ID/g
Biodistribution Intestine ([2]; 1 h): 13.0 ± 4.61 % ID/g
Biodistribution Kidneys ([2]; 1 h): 73.9 ± 35.2 % ID/g
Biodistribution Liver ([2]; 1 h): 1.14 ± 0.48 % ID/g
Biodistribution Lungs ([2]; 1 h): 1.21 ± 0.48 % ID/g
Biodistribution Muscle ([2]; 1 h): 0.36 ± 0.18 % ID/g
Biodistribution Pancreas ([2]; 1 h): 0.30 ± 0.17 % ID/g
Biodistribution Spleen ([2]; 1 h): 2.67 ± 0.98 % ID/g
Biodistribution Stomach ([2]; 1 h): 0.37 ± 0.45 % ID/g
Biodistribution Testes ([2]; 1 h): 0.74 ± 0.55 % ID/g
Biodistribution Tumor ([2]; 1 h): 14.0 ± 5.20 % ID/g
Tumor:Blood contrast ratio ([2]; 1 h): 17.1 ± 5.40
Tumor:Muscle contrast ratio ([2]; 1 h): 49.7 ± 28.5
Tumor:kidney contrast ratio ([2]; 1 h): 0.21 ± 0.08

O=C(O)CC[C@H](NC(=O)N[C@@H](CCCCNC(=O)c1ccc(Cn2cc(C[n+]3ccc([B-](F)(F)[18F])cc3)nn2)nc1)C(=O)O)C(=O)O [^18F-PSMA PyrBF3]
Biodistribution Adrenal glands ([2]; 1 h): 6.66 ± 2.33 % ID/g
Biodistribution Blood ([2]; 1 h): 0.74 ± 0.15 % ID/g
Biodistribution Bone ([2]; 1 h): 0.76 ± 0.57 % ID/g
Biodistribution Brain ([2]; 1 h): 0.05 ± 0.01 % ID/g
Biodistribution Fat ([2]; 1 h): 1.05 ± 0.49 % ID/g
Biodistribution Heart ([2]; 1 h): 0.34 ± 0.08 % ID/g
Biodistribution Intestine ([2]; 1 h): 0.48 ± 0.22 % ID/g
Biodistribution Kidneys ([2]; 1 h): 164 ± 50.2 % ID/g
Biodistribution Liver ([2]; 1 h): 1.28 ± 0.18 % ID/g
Biodistribution Lungs ([2]; 1 h): 1.67 ± 0.47 % ID/g
Biodistribution Muscle ([2]; 1 h): 0.28 ± 0.07 % ID/g
Biodistribution Pancreas ([2]; 1 h): 0.68 ± 0.50 % ID/g
Biodistribution Spleen ([2]; 1 h): 3.36 ± 1.08 % ID/g
Biodistribution Stomach ([2]; 1 h): 0.15 ± 0.03 % ID/g
Biodistribution Testes ([2]; 1 h): 0.67 ± 0.27 % ID/g
Biodistribution Tumor ([2]; 1 h): 6.26 ± 0.82 % ID/g
Tumor:Blood contrast ratio ([2]; 1 h): 8.67 ± 1.74
Tumor:Muscle contrast ratio ([2]; 1 h): 23.5 ± 5.00
Tumor:kidney contrast ratio ([2]; 1 h): 0.04 ± 0.02

O=C(O)CC[C@H](NC(=O)N[C@@H](CCCCNC(=O)[C@H](Cc1ccc2ccccc2c1)NC(=O)[C@H]1CC[C@H](CNC(=O)Cn2cc(C[n+]3ccc([B-](F)(F)[18F])cc3)nn2)CC1)C(=O)O)C(=O)O [^18F-PSMA-617-PyrBF3]
Biodistribution Adrenal glands ([2]; 1 h): 2.02 ± 0.56 % ID/g
Biodistribution Blood ([2]; 1 h): 1.45 ± 1.15 % ID/g
Biodistribution Bone ([2]; 1 h): 0.54 ± 0.14 % ID/g
Biodistribution Brain ([2]; 1 h): 0.03 ± 0.00 % ID/g
Biodistribution Fat ([2]; 1 h): 0.42 ± 0.30 % ID/g
Biodistribution Heart ([2]; 1 h): 0.25 ± 0.06 % ID/g
Biodistribution Intestine ([2]; 1 h): 20.8 ± 4.79 % ID/g
Biodistribution Kidneys ([2]; 1 h): 83.5 ± 35.7 % ID/g
Biodistribution Liver ([2]; 1 h): 1.10 ± 0.28 % ID/g
Biodistribution Lungs ([2]; 1 h): 1.06 ± 0.23 % ID/g
Biodistribution Muscle ([2]; 1 h): 0.18 ± 0.03 % ID/g
Biodistribution Pancreas ([2]; 1 h): 0.26 ± 0.08 % ID/g
Biodistribution Spleen ([2]; 1 h): 2.84 ± 1.51 % ID/g
Biodistribution Stomach ([2]; 1 h): 0.98 ± 0.12 % ID/g
Biodistribution Testes ([2]; 1 h): 0.39 ± 0.13 % ID/g
Biodistribution Tumor ([2]; 1 h): 23.1 ± 8.26 % ID/g
Tumor:Blood contrast ratio ([2]; 1 h): 35.4 ± 27.6
Tumor:Muscle contrast ratio ([2]; 1 h): 145 ± 57.0
Tumor:kidney contrast ratio ([2]; 1 h): 0.32 ± 0.11
